# Results as given in US8084649B2, “Herbicides” (Syngenta Crop Protection, inc., priority 2007, dated 2011).
# Tested on: Avena fatua (AVEFA)
# Assay: Post-emergence herbicidal activity, glasshouse pot test
# Format: in vivo
# Details: Avena fatua, rate 125 g/ha, evaluated after 14 or 15 days, read-out: Post-emergence activity, AVEFA (100=total damage to plant; 0=no damage to plant)
# Summary of the method: (§1)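 Plants sown in sterilised standard soil, grown 10 days in glasshouse, then sprayed with aqueous dilution of active ingredient formulated in acetone plus Emulsogen EL/N-methylpyrrolidone/dipropylene glycol monomethyl ether/X-77 solution. Damage scored visually 14 or 15 days after spraying, 0 (none) to 100 (total).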
row,SMILES,pest or weed control at 125 g/ha
1,CCc1cc(C)cc(CC)c1C1=C(OC(=O)OCC(C)C)CC2(CCOCC2)CC1=O [Compound P20],100%
2,CCc1ccc(-c2ccc(Cl)cc2)cc1C1=C(O)CC(CCSC)CC1=O (stereo not drawn) [Compound T65],90%
3,CCC[S+]([O-])C(C)CC1CC(=O)C(c2c(C)cc(C)cc2C)=C(O)C1 (stereo not drawn) [Compound T41],70%

# Tested on: Setaria faberi (SETFA)
# Assay: as above
# Format: in vivo
# Details: Setaria faberi, rate 125 g/ha, evaluated after 14 or 15 days, read-out: Post-emergence activity, SETFA (100=total damage to plant; 0=no damage to plant)
# Summary of the method: as §1
row,SMILES,pest or weed control at 125 g/ha
1,CCc1cc(C)cc(CC)c1C1=C(OC(=O)OCC(C)C)CC2(CCOCC2)CC1=O [Compound P20],70%
2,CCc1ccc(-c2ccc(Cl)cc2)cc1C1=C(O)CC(CCSC)CC1=O (stereo not drawn) [Compound T65],90%
3,CCC[S+]([O-])C(C)CC1CC(=O)C(c2c(C)cc(C)cc2C)=C(O)C1 (stereo not drawn) [Compound T41],50%

# Tested on: Alopecurus myosuroides (ALOMY)
# Assay: as above
# Format: in vivo
# Details: Alopecurus myosuroides, rate 125 g/ha, evaluated after 14 or 15 days, read-out: Post-emergence activity, ALOMY (100=total damage to plant; 0=no damage to plant)
# Summary of the method: as §1
row,SMILES,pest or weed control at 125 g/ha
1,CCc1cc(C)cc(CC)c1C1=C(OC(=O)OCC(C)C)CC2(CCOCC2)CC1=O [Compound P20],90%
2,CCc1ccc(-c2ccc(Cl)cc2)cc1C1=C(O)CC(CCSC)CC1=O (stereo not drawn) [Compound T65],90%
3,CCC[S+]([O-])C(C)CC1CC(=O)C(c2c(C)cc(C)cc2C)=C(O)C1 (stereo not drawn) [Compound T41],90%

# Tested on: Lolium perenne (LOLPE)
# Assay: as above
# Format: in vivo
# Details: Lolium perenne, rate 125 g/ha, evaluated after 14 or 15 days, read-out: Post-emergence activity, LOLPE (100=total damage to plant; 0=no damage to plant)
# Summary of the method: as §1
row,SMILES,pest or weed control at 125 g/ha
1,CCc1cc(C)cc(CC)c1C1=C(OC(=O)OCC(C)C)CC2(CCOCC2)CC1=O [Compound P20],90%
2,CCc1ccc(-c2ccc(Cl)cc2)cc1C1=C(O)CC(CCSC)CC1=O (stereo not drawn) [Compound T65],70%
3,CCC[S+]([O-])C(C)CC1CC(=O)C(c2c(C)cc(C)cc2C)=C(O)C1 (stereo not drawn) [Compound T41],80%

# Tested on: Echinochloa crus-galli (ECHCG)
# Assay: as above
# Format: in vivo
# Details: Echinochloa crus-galli, rate 125 g/ha, evaluated after 14 or 15 days, read-out: Post-emergence activity, ECHCG (100=total damage to plant; 0=no damage to plant)
# Summary of the method: as §1
row,SMILES,pest or weed control at 125 g/ha
1,CCc1cc(C)cc(CC)c1C1=C(OC(=O)OCC(C)C)CC2(CCOCC2)CC1=O [Compound P20],100%
2,CCc1ccc(-c2ccc(Cl)cc2)cc1C1=C(O)CC(CCSC)CC1=O (stereo not drawn) [Compound T65],100%
3,CCC[S+]([O-])C(C)CC1CC(=O)C(c2c(C)cc(C)cc2C)=C(O)C1 (stereo not drawn) [Compound T41],70%

# Tested on: Digitaria sanguinalis (DIGSA)
# Assay: as above
# Format: in vivo
# Details: Digitaria sanguinalis, rate 125 g/ha, evaluated after 14 or 15 days, read-out: Post-emergence activity, DIGSA (100=total damage to plant; 0=no damage to plant)
# Summary of the method: as §1
row,SMILES,pest or weed control at 125 g/ha
1,CCc1cc(C)cc(CC)c1C1=C(OC(=O)OCC(C)C)CC2(CCOCC2)CC1=O [Compound P20],70%
2,CCc1ccc(-c2ccc(Cl)cc2)cc1C1=C(O)CC(CCSC)CC1=O (stereo not drawn) [Compound T65],90%
3,CCC[S+]([O-])C(C)CC1CC(=O)C(c2c(C)cc(C)cc2C)=C(O)C1 (stereo not drawn) [Compound T41],80%

# Tested on: Avena fatua (AVEFA)
# Assay: Pre-emergence herbicidal activity, glasshouse pot test
# Format: in vivo
# Details: Avena fatua, 480 h, rate 500 g/ha, evaluated after 20 days, read-out: Pre-emergence activity, AVEFA (100=total damage to plant; 0=no damage to plant)
# Summary of the method: (§2)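 Visual damage score 0–100 (100 = plant totally killed), taken 20 days after treatment. Spray was applied to pots of sterilised standard soil one day post-sowing, using an aqueous solution of compound in acetone and a surfactant/solvent blend (Emulsogen EL, NMP, DPGME, X-77).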
row,SMILES,pest or weed control at 500 g/ha
1,CCc1cc(C)cc(CC)c1C1=C(OC(=O)OCC(C)C)CC2(CCOCC2)CC1=O [Compound P20],100%
2,CCc1ccc(-c2ccc(Cl)cc2)cc1C1=C(O)CC(CCSC)CC1=O (stereo not drawn) [Compound T65],60%
3,CCC[S+]([O-])C(C)CC1CC(=O)C(c2c(C)cc(C)cc2C)=C(O)C1 (stereo not drawn) [Compound T41],60%

# Tested on: Setaria faberi (SETFA)
# Assay: as above
# Format: in vivo
# Details: Setaria faberi, 480 h, rate 500 g/ha, evaluated after 20 days, read-out: Pre-emergence activity, SETFA (100=total damage to plant; 0=no damage to plant)
# Summary of the method: as §2
row,SMILES,pest or weed control at 500 g/ha
1,CCc1cc(C)cc(CC)c1C1=C(OC(=O)OCC(C)C)CC2(CCOCC2)CC1=O [Compound P20],100%
2,CCc1ccc(-c2ccc(Cl)cc2)cc1C1=C(O)CC(CCSC)CC1=O (stereo not drawn) [Compound T65],100%
3,CCC[S+]([O-])C(C)CC1CC(=O)C(c2c(C)cc(C)cc2C)=C(O)C1 (stereo not drawn) [Compound T41],80%

# Tested on: Alopecurus myosuroides (ALOMY)
# Assay: as above
# Format: in vivo
# Details: Alopecurus myosuroides, 480 h, rate 500 g/ha, evaluated after 20 days, read-out: Pre-emergence activity, ALOMY (100=total damage to plant; 0=no damage to plant)
# Summary of the method: as §2
row,SMILES,pest or weed control at 500 g/ha
1,CCc1cc(C)cc(CC)c1C1=C(OC(=O)OCC(C)C)CC2(CCOCC2)CC1=O [Compound P20],100%
2,CCc1ccc(-c2ccc(Cl)cc2)cc1C1=C(O)CC(CCSC)CC1=O (stereo not drawn) [Compound T65],90%
3,CCC[S+]([O-])C(C)CC1CC(=O)C(c2c(C)cc(C)cc2C)=C(O)C1 (stereo not drawn) [Compound T41],90%

# Tested on: Lolium perenne (LOLPE)
# Assay: as above
# Format: in vivo
# Details: Lolium perenne, 480 h, rate 500 g/ha, evaluated after 20 days, read-out: Pre-emergence activity, LOLPE (100=total damage to plant; 0=no damage to plant)
# Summary of the method: as §2
row,SMILES,pest or weed control at 500 g/ha
1,CCc1cc(C)cc(CC)c1C1=C(OC(=O)OCC(C)C)CC2(CCOCC2)CC1=O [Compound P20],100%
2,CCc1ccc(-c2ccc(Cl)cc2)cc1C1=C(O)CC(CCSC)CC1=O (stereo not drawn) [Compound T65],70%
3,CCC[S+]([O-])C(C)CC1CC(=O)C(c2c(C)cc(C)cc2C)=C(O)C1 (stereo not drawn) [Compound T41],100%

# Tested on: Echinochloa crus-galli (ECHCG)
# Assay: as above
# Format: in vivo
# Details: Echinochloa crus-galli, 480 h, rate 500 g/ha, evaluated after 20 days, read-out: Pre-emergence activity, ECHCG (100=total damage to plant; 0=no damage to plant)
# Summary of the method: as §2
row,SMILES,pest or weed control at 500 g/ha
1,CCc1cc(C)cc(CC)c1C1=C(OC(=O)OCC(C)C)CC2(CCOCC2)CC1=O [Compound P20],100%
2,CCc1ccc(-c2ccc(Cl)cc2)cc1C1=C(O)CC(CCSC)CC1=O (stereo not drawn) [Compound T65],100%
3,CCC[S+]([O-])C(C)CC1CC(=O)C(c2c(C)cc(C)cc2C)=C(O)C1 (stereo not drawn) [Compound T41],80%

# Tested on: Digitaria sanguinalis (DIGSA)
# Assay: as above
# Format: in vivo
# Details: Digitaria sanguinalis, 480 h, rate 500 g/ha, evaluated after 20 days, read-out: Pre-emergence activity, DIGSA (100=total damage to plant; 0=no damage to plant)
# Summary of the method: as §2
row,SMILES,pest or weed control at 500 g/ha
1,CCc1cc(C)cc(CC)c1C1=C(OC(=O)OCC(C)C)CC2(CCOCC2)CC1=O [Compound P20],100%
2,CCc1ccc(-c2ccc(Cl)cc2)cc1C1=C(O)CC(CCSC)CC1=O (stereo not drawn) [Compound T65],100%
3,CCC[S+]([O-])C(C)CC1CC(=O)C(c2c(C)cc(C)cc2C)=C(O)C1 (stereo not drawn) [Compound T41],100%
